Ten compounds from ChEMBL document CHEMBL1201862, “PubChem BioAssay data set” (2004) can be followed below.

SMILES strings stand for the structures. The source made the active and inactive calls.

For orientation: AC50 means the midpoint of the concentration-response curve, whichever way the signal moves. Usually EC50 stands for the concentration that produces a half-maximal response.

In assay [1] the target is Voltage-gated inwardly rectifying potassium channel KCNH2 (Homo sapiens, UniProt Q12809). Particulars: Potency.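 Further: confirmatory quantitative high-throughput screen measuring inhibition of hERG channel activity.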
In assay [2] the target is T1, Aryl hydrocarbon receptor (Homo sapiens, UniProt P35869).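 Further: confirmatory quantitative high-throughput screen measuring activation of the AhR signaling pathway.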
T1 sequence (P35869 whole entry): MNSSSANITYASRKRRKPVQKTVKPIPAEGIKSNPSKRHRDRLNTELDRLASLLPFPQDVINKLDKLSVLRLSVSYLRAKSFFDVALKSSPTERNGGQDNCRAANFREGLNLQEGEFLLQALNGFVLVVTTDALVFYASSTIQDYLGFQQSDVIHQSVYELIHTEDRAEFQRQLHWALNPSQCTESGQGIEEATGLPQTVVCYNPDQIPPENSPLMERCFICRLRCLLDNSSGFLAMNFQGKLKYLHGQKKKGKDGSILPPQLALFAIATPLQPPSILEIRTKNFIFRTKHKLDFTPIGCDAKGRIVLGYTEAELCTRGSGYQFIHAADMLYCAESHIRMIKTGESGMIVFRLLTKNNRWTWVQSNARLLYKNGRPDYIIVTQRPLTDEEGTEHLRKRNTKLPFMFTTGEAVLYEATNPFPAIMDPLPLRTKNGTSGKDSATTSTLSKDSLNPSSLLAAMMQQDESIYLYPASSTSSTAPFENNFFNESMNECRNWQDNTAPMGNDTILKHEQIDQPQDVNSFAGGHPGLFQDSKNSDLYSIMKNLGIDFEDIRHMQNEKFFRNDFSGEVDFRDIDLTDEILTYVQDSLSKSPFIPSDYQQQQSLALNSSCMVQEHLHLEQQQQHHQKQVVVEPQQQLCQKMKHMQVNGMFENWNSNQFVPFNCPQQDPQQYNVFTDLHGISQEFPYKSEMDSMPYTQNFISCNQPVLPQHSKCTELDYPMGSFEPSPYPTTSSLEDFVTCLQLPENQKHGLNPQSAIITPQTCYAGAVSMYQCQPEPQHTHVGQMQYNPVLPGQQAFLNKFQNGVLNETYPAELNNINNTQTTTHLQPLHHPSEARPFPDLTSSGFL
Conditions: Potency.

The nature of assay [3]: Luminescence Cell-Based Dose Confirmation HTS to Identify Activators of 5'UTR Stem-Loop Driven Alpha-Synuclein mRNA Translation in H4 Neuroglioblastoma Cells. [Related pubchem assays: 1829 (Project Summary), 1814 (Primary HTS)]. In kind it is functional.
The nature of assay [4]: Luminescence Cell-Based Dose Response HTS to Identify Activators of Luciferase Translation or Activity in H4 […] Cells. [Related pubchem assays: 1829 (Project Summary), 1814 (Primary HTS)]. In kind it is functional.
The nature of assay [5]: cells. In kind it is functional, cell-based.
The next assay deals with H4. Description: Luminescence Cell-Based Dose Response HTS to Identify Activators of 5'UTR Stem-Loop Driven Prion Protein mRNA Translation in H4 Neuroglioblastoma Cells. [Related pubchem assays: 1829 (Project Summary), 1814 (Primary HTS)]. In kind it is functional. Conditions: Homo sapiens.
Assay [6] is described as follows: Trypanosoma cruzi growth suppression in host cells – NIH3T3 host cells, beta-gal luminescence, confirmation (AID 2044).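 Further: intracellular parasites grown in NIH/3T3 mouse fibroblasts as host cells; luminescent beta-galactosidase reporter signal from transgenic T. cruzi replicating inside host cells; inhibitors lower the luminescence signal.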 In kind it is functional, cell-based.
Assay [7] is described as follows: cells. In kind it is functional, cell-based. The source holds these as a separate data set.
Assay [8] is described as follows: NIH3T3 cell viability loss – ATP luminescence, mouse fibroblasts, counter-screen, dose response (AID 2010).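 Further: cells exposed to compound for about 90 hours before reading.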 In kind it is functional, cell-based. On the technique in general: Counterscreens check selectivity or assay interference.
Assay [9] addresses T2, Short transient receptor potential channel 4 (Mus musculus, UniProt Q9QUQ5).
T2 sequence (Q9QUQ5 whole entry): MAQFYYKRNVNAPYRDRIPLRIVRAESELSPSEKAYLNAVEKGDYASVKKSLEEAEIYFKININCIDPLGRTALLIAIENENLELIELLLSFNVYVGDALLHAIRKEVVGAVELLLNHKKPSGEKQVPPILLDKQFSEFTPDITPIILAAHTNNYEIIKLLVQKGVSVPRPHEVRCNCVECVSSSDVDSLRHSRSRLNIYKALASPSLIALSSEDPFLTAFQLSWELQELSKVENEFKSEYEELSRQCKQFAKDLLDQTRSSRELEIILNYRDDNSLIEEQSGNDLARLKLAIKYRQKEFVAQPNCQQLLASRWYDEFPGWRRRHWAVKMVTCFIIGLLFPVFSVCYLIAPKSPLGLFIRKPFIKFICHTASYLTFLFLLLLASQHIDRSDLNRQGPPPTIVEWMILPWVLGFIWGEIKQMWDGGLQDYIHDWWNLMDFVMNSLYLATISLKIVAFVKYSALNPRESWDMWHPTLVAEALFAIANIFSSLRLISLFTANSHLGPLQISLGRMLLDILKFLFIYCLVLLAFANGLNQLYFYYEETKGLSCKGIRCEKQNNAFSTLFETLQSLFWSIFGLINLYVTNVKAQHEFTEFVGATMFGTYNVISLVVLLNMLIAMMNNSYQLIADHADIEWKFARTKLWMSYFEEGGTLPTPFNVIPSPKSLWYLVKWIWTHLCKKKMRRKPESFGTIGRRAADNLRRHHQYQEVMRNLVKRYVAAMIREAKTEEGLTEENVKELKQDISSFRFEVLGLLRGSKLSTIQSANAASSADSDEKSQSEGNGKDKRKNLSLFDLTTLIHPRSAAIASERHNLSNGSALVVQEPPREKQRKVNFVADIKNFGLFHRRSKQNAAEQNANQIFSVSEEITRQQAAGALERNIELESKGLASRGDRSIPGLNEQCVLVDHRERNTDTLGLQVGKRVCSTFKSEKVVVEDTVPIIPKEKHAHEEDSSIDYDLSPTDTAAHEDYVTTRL
The assay can be described thus: block of DAMGO-driven TRPC4 calcium entry – cell-based, HEK293 TRPC4/mu-opioid, Fluo-4 calcium, dose response (AID 434942).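 Further: potency of inhibitors blocking the TRPC4 calcium response.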 In kind it is functional.

For a further assay, the system named is INS1. Description: INS-1E survival protection against cytokine death – cell-based, luminescence, retest, dose response (AID 449756).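 Further: cell death triggered by IL-1 beta plus TNF-alpha plus IFN-gamma mixture; protective hits raise ATP signal compared with cytokine alone wells.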 Conditions: Rattus norvegicus. In kind it is functional.
For assay [10], the target named is DNA (cytosine-5)-methyltransferase 1 (Homo sapiens, UniProt P26358). Description: inhibition of DNA methylation by DNMT1 – biochemical, fluorescent molecular beacon, confirmation (AID 602386). In kind it is functional.
Sequence of DNA (cytosine-5)-methyltransferase 1 (P26358 whole entry): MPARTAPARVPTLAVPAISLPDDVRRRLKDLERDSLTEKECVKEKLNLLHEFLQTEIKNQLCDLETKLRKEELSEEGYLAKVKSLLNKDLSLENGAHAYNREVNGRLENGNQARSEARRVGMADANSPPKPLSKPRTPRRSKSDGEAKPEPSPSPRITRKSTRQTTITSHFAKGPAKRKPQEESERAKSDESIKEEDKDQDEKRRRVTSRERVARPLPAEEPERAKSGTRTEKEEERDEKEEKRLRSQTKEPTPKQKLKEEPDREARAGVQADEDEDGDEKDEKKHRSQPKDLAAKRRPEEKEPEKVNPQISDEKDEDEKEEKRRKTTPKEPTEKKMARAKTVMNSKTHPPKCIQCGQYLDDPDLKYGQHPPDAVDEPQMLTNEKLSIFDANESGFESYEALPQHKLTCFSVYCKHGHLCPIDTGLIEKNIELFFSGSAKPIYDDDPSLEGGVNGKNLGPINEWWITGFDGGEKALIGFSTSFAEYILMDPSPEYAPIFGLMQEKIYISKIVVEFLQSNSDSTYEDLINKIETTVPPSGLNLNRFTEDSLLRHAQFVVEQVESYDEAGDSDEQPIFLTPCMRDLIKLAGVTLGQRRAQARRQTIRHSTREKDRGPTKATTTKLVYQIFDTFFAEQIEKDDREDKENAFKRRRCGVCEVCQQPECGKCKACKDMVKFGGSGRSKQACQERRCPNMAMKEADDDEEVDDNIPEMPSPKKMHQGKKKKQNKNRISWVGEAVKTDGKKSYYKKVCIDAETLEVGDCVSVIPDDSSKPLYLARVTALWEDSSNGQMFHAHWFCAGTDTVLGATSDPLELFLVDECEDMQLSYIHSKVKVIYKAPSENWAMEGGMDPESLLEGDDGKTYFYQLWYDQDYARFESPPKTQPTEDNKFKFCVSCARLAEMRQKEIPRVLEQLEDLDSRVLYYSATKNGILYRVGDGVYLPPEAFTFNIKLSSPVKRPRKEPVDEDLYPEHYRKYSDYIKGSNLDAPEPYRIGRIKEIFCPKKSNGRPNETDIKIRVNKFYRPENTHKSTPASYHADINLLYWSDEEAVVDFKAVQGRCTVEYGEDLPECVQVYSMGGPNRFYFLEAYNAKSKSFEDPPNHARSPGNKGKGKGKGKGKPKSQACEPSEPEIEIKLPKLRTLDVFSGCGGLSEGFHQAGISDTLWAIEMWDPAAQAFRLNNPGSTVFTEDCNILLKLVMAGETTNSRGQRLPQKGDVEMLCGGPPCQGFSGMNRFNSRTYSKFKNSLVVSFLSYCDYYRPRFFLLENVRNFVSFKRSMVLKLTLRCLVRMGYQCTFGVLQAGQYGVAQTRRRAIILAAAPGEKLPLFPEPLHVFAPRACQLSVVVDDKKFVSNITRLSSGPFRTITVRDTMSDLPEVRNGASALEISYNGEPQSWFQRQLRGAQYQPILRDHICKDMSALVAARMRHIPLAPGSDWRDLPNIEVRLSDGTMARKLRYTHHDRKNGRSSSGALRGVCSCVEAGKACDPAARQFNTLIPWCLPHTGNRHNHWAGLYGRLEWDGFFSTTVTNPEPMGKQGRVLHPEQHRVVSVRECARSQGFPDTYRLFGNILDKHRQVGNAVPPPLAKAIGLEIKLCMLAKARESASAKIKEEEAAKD
Assay [11] addresses SWI/SNF-related matrix-associated actin-dependent regulator of chromatin subfamily A member 2 (Homo sapiens, UniProt P51531). Description: Luminescence-based cell-based high throughput dose response assay to identify activators of the function of SWI/SNF related, matrix associated, actin dependent regulator of chromatin, subfamily a, member 2 (SMARCA2, BRM). In kind it is functional.

Assay [12] can be described thus: Counterscreen for activators of the function of SWI/SNF related, matrix associated, actin dependent regulator of chromatin, subfamily a, member 2 (SMARCA2, BRM): Luminescence-based cell-based high throughput dose response assay to identify non-selective compounds using the VP16 reporter assay. In kind it is functional.
The target in another assay is Beta-galactosidase (Escherichia coli, UniProt Q8VNN2). The assay can be described thus: Dose response counterscreen for EBI2 assay utilizing the enzyme, b-galactosidase. In kind it is functional.
Assay [13] has as its target T3, Sentrin-specific protease 1 (Homo sapiens, UniProt Q9P0U3).
T3 sequence (Q9P0U3 whole entry): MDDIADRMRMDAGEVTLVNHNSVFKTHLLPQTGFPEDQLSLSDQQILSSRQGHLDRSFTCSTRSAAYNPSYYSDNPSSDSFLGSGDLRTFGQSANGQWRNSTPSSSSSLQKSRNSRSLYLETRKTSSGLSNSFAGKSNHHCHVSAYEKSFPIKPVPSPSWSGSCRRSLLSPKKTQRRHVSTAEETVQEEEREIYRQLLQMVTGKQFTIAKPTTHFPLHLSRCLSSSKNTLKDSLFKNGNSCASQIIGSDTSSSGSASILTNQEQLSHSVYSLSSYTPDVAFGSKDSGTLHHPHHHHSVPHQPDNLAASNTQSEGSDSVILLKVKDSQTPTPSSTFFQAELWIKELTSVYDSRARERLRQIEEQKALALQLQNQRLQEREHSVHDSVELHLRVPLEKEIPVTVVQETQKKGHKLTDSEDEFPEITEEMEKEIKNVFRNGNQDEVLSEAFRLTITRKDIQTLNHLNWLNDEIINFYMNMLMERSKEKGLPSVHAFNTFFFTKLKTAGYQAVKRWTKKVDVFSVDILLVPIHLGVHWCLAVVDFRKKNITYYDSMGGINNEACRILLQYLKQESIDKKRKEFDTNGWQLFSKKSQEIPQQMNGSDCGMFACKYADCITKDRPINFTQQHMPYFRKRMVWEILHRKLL
The assay can be described thus: SENP1 catalytic domain blockers, concentration series – biochemical, kinetic FRET, dose response (AID 651697). In kind it is functional. Conditions: read-out: IC50_Mean.

Assay [14] addresses T3, Sentrin-specific protease 1. The assay can be described thus: Dose response confirmation of small molecule inhibitors of the catalytic domain of the SUMO protease, SENP1 in a FRET assay. In kind it is functional. Particulars: read-out: IC50_Mean.
Assay [15] deals with Photoreceptor-specific nuclear receptor (Homo sapiens, UniProt Q9Y5X4). In kind it is functional, cell-based.
Sequence of Photoreceptor-specific nuclear receptor (Q9Y5X4 whole entry, the tested form may be a part): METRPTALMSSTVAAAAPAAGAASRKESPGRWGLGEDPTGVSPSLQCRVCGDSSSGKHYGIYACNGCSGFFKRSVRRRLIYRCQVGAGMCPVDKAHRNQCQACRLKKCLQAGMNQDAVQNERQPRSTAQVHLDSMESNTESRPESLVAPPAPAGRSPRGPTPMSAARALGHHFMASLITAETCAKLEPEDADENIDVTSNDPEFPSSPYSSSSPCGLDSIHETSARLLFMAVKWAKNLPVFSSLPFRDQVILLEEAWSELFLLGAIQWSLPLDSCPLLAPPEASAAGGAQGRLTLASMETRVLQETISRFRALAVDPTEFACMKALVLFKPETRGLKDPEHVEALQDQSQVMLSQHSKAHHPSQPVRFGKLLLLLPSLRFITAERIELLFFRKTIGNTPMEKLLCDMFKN
The target in assay [16] is Hepatocyte nuclear factor 4-alpha (Homo sapiens, UniProt P41235). In kind it is functional, cell-based.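 Further: biochemical luminescence-based dose-response counterscreen measuring inhibition of HNF4 dimerization, run alongside a screen for blockers of ABHD5–perilipin-5 interaction; split luciferase complementation of HNF4 fusion proteins in cell lysate measuring dimerization.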
Sequence of Hepatocyte nuclear factor 4-alpha (P41235 whole entry, the tested form may be a part): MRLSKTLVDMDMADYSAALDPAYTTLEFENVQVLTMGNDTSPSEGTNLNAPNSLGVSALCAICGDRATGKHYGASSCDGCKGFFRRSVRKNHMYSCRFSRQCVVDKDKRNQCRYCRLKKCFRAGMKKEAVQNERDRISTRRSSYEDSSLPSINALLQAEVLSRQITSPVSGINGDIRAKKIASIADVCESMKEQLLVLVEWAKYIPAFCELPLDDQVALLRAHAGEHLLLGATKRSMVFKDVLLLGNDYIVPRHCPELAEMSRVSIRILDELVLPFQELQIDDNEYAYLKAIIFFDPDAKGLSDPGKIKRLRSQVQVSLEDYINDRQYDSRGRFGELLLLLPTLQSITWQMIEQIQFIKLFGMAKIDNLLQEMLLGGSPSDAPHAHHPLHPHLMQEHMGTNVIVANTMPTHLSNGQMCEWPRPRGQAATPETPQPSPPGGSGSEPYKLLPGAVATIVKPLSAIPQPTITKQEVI
Assay [17] addresses Fructose-bisphosphate aldolase (Mycobacterium tuberculosis, UniProt P9WQA3). Description: Fluorescence-based biochemical high throughput dose response assay for inhibitors of the fructose-bisphosphate aldolase (FBA) of M. tuberculosis. In kind it is functional.
Assay [18] can be described thus: Luminescence Cell-Based Dose Retest to Confirm Inhibitors of Cancer Stem Cells. [Related pubchem assays (depositor defined):AID2717, AID2721]. In kind it is functional. Conditions: Homo sapiens.
Another assay relates to CHO. Description: CHO cell viability loss, potency – luminescence, cytotoxicity control for TLR9-MyD88 binding inhibitor project, dose response (AID 588339).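 Further: CHO cells stably coexpressing TLR9 and MyD88 fusions from primary screen; compound exposure lasted 48 hours before viability readout.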 In kind it is functional, cell-based, hamster. Particulars: Cricetulus griseus.
Another assay concerns the target Beta Lactamase (Pseudomonas aeruginosa, UniProt Q932Y6). The assay can be described thus: BLA reporter interference, concentration series – BLA reporter cells, FRET fluorescence, artefact control for TLR9-MyD88 binding inhibitor project, dose response (AID 588341).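 Further: cell based assay in CHO-K1 cells stably expressing beta-lactamase.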 In kind it is cell-based.
Assay [19] can be described thus: viability loss in HEK293T cells – cell-based, cherry-picks, cytotoxicity control for HIV Vif inhibitor project, dose response (AID 652208). In kind it is functional.
Assay [20] in a line: cells. In kind it is functional.
The target in assay [21] is Low molecular weight phosphotyrosine protein phosphatase (Homo sapiens, UniProt P24666). In kind it is functional. Conditions: read-out: IC50_Mean.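 Further: Dose-response confirmation assay measuring inhibition of LMPTP enzyme activity by fluorescence intensity read-out.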
Sequence of Low molecular weight phosphotyrosine protein phosphatase (P24666 whole entry): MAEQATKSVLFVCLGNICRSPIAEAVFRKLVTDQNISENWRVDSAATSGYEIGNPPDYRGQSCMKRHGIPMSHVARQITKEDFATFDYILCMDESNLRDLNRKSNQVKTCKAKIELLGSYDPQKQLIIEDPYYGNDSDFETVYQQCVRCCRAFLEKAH

Sequence of Fructose-bisphosphate aldolase (P9WQA3 whole entry): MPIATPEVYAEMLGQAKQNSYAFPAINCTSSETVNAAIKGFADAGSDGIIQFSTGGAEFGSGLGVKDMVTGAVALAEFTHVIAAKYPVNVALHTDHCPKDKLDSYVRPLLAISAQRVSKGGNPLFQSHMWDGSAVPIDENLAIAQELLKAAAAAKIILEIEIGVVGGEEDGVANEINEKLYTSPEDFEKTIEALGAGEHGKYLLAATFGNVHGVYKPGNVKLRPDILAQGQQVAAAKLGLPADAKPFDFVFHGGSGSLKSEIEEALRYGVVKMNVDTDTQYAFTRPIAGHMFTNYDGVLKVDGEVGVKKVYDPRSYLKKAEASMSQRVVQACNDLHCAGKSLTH
Sequence of SWI/SNF-related matrix-associated actin-dependent regulator of chromatin subfamily A member 2 (P51531 whole entry): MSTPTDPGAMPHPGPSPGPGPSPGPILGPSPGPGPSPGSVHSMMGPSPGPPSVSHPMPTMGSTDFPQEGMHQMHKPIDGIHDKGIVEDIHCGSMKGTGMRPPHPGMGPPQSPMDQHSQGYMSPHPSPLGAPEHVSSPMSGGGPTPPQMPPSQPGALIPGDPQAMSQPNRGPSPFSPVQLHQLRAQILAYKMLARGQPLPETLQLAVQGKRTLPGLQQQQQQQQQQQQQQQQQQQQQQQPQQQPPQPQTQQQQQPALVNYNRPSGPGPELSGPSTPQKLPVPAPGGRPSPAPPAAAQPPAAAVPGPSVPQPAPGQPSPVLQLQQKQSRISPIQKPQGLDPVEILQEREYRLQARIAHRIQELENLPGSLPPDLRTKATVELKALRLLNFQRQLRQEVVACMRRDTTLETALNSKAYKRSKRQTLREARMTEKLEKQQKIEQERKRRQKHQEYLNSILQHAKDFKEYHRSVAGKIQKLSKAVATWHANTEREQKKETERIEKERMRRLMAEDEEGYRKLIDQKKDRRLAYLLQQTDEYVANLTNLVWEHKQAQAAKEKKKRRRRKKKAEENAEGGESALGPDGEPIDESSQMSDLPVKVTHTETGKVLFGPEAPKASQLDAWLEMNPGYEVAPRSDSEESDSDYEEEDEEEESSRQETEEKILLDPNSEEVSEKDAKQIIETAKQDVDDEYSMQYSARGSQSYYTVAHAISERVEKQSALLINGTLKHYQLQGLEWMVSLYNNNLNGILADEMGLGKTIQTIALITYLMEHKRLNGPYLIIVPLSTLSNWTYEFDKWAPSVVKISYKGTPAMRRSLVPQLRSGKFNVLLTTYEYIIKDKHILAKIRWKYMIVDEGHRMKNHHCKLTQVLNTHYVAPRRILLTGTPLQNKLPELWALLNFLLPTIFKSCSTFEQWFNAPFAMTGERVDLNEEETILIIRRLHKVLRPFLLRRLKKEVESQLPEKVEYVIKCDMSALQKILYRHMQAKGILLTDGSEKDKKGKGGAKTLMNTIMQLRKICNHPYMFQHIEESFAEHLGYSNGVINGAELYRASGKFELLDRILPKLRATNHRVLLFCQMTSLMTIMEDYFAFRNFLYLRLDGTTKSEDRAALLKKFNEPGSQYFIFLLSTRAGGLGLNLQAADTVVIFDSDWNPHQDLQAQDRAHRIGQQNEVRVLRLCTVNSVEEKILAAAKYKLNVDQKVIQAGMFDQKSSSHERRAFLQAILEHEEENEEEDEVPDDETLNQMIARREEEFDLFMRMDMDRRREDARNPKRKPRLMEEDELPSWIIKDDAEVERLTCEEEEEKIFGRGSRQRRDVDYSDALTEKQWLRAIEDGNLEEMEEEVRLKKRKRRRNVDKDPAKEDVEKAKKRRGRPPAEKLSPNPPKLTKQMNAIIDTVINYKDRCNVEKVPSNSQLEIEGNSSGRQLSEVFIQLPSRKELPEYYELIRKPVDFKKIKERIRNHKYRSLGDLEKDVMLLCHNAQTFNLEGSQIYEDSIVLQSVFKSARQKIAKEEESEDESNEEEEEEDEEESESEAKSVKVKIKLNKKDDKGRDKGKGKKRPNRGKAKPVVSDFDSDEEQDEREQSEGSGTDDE
Sequence of Beta Lactamase (Q932Y6 whole entry): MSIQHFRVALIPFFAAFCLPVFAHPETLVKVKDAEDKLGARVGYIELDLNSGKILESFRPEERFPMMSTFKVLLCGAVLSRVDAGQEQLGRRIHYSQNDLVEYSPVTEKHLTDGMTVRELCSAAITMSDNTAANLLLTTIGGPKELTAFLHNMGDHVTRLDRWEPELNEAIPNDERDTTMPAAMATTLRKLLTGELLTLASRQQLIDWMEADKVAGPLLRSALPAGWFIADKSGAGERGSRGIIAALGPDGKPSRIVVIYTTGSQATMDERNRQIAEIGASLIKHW

On to `[O-]/[N+](=N/c1ccccc1)c1ccccc1`, for which the half-maximal activity concentration (AC50) is 50.1 µM (inconclusive) in [1] and 56.2 µM (inconclusive) in [2].
Turning to `CCN(CC)CCn1c2ccccc2c2cnc(N)c(C#N)c21`, the EC50 in assay [3] was 10.2 µM (active); in [4], 21 µM (active); in “cells [5]”, > 350 µM (not active); in the assay with H4, > 120 µM (not active); in [6], 1.21 µM (active); in the assay “cells [7]” it was > 350 µM (not active). Moreover, the EC50 was 9.47 µM (active) in assay [8], 4.73 µM (active) in assay [9], > 3.38 µM (active) in assay [11] and > 91.2 µM (inactive) in [12]. The AC50 in the assay on INS1 is 3.09 µM (active). For the same compound, the IC50 in assay [10] was > 99 µM (inactive).
Take `CCc1cc2cc(C(=O)N3CCN(Cc4ccccc4)CC3)sc2s1`: at Beta-galactosidase, the IC50 was > 80 µM (inactive).
For `CCOc1cccc(/C=C2\NC(=S)N(c3ccccc3)C2=O)c1O`, the values for the IC50 in assay [13] and in assay [14] were 80 µM (inactive) and 20 µM (inactive), respectively.
Take `COc1ccc(NC(=O)c2sc(=O)n(Cc3ccc(F)c(Cl)c3)c2C)cc1OC`: the IC50 in assay [15] was 8.01 µM (active).
On to `COc1ccc(C(C(=O)Nc2ccc3c(c2)OCCO3)n2c(=O)c(-c3ccco3)nc3ccccc32)cc1` (configuration not stated), for which, in [16], the IC50 is 12.5 µM (inactive).
For `Cc1ccc(-c2cc(C(=O)O)c3cc(Br)ccc3n2)s1`, the IC50 in assay [17] was > 1.11 µM (active).
Turning to `CCCCCCC=C1CCC(CN2CCCC2)C1=O` (configuration not stated), in [16], the IC50 is 2.25 µM (active).
`COc1ccc(-c2nc3cnccn3c2NC2CCCCC2)cc1-c1cccc(Cl)c1`: the AC50 in assay [18] is 4.23 µM (active); in assay [19], 39.2 µM (active). The IC50 in the assay on CHO is 25.4 µM (inactive); on Beta Lactamase, 6.78 µM (active).
`CCn1cc(C(=O)O)c(=O)c2cc(F)c(N3CCN(C(=S)NC(=O)c4ccccc4)CC3)cc21`: the IC50 in “cells [20]” was 42.6 µM (active); in assay [21], 15.4 µM (active).
